Laboratory results from publication PMC11249646, “Small-Molecule Disruptors of the Interaction between Calcium- and Integrin-Binding Protein 1 and Integrin αIIbβ3 as Novel Antiplatelet Agents” (ACS Pharmacology & Translational Science, 2024).
In brackets after ≈: the same amount, converted by molar mass. Read-outs that look alike come from different tables or passages of the source.

Experiments:
washed human platelets = experiment: Human platelet aggregation assay (thrombin-induced); type: cell-based; conditions: for inhibition at 10 µM: Homo sapiens, Platelet, single concentration of 10 μM (n = 3), thrombin; for Thrombin Assay 10 µM (%): platelet aggregation inhibition at 10 µM
Source text: A classical challenge in target-based drug discovery is moving from biochemical to cellular assay and the essential step of determining if the compounds of interest can perform in a cellular context. After characterization of the compounds in a series of biochemical assay formats, our next step was to assess their activity in a cellular environment. Our previous studies have shown that the interaction of the cytoplasmic domain of integrin αIIbβ3, a key regulator of platelet aggregation, with CIB1, is involved in downstream signaling in platelet activation and aggregation. We sought to determine whether our candidate compounds were inhibiting this interaction by evaluating them for platelet function in a human platelet aggregation assay. We prepared platelet-rich plasma (PRP) and washed the platelets as previously described[44] and then performed a platelet aggregation assay using the washed platelet suspensions (2 × 10^8/platelets/mL) followed by the recording of aggregation traces (see Materials and Methods Section). To induce platelet aggregation, 0.03 U/mL of thrombin, a physiological agonist of platelet activation, was used.
Figure 6 Effect of compounds on human platelet activation. Representative platelet aggregation tracings of washed human platelet suspensions pretreated for 30 min at 37 °C with vehicle (DMSO) or compounds at indicated concentrations followed by activation with thrombin (0.03–0.1 U/mL). Panel (A): NCGC00071855. Panel (B–D): NCGC00351170. Panel (E): CD62P exposure was in the presence of NCGC00351170. Data represents mean ± SEM, n = 4 individual experiments; ns = non significant *P < 0.05, ***P < 0.001, ****P < 0.0001.
Whole blood was drawn by venipuncture from healthy adult volunteers (of both gender and race) with informed consent. Approval was obtained from the institutional review boards of Thomas Jefferson University, according to the Declaration of Helsinki. Blood was collected in acidified citrate dextrose as an anticoagulant. Platelet-rich plasma (PRP) and washed platelets were prepared, as previously described.[44] Platelet aggregation was performed using washed platelet suspensions containing 2 × 10^8 platelets/mL using a Chrono-Log Lumi-Aggregometer (Chrono-Log), as described previously.[11] Aggregation traces were recorded by using Aggrolink software (Chrono-Log). Thrombin-induced P-selectin (CD62P) exposure was performed using Accuri C6 flowcytometer (BD Bioscience) as described previously.[11]
Figure S9: Effect of compounds on human platelet activation. Representative platelet aggregation
tracings of washed human platelet suspensions treated with vehicle (DMSO) or indicated
compounds at 10 μM for 30 minutes at 37 °C followed by activation with thrombin (0.03U/mL).

[1] = In vitro ADME: solubility; type: physicochemical
[2] = molecular target: T1, CIB1 and αIIb interaction (GST-CIB1 : F-αIIb peptide) (Homo sapiens, UniProt Q99828); experiment: FP assay, 384-well format (screen); type: binding; set-up: 384-well SCREEN Efficacy (%): concentration or dose not given beside the values
T1 construct: made in house; host or cells: BL-21 plus RIL cells (E. coli)
T1 sequence (Q99828 1-191): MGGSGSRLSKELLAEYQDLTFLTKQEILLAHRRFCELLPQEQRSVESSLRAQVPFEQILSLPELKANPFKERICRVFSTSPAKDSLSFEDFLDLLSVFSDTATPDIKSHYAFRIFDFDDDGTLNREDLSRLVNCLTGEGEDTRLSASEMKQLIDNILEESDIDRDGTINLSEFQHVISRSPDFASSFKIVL

[3] = molecular target: T2, CIB1 and αIIb interaction (CIB1-GST : F-αIIb peptide) (Homo sapiens, UniProt Q99828); experiment: FP assay, 1536-well qHTS format (primary and confirmatory screen); type: binding
T2 construct: made in house; host or cells: BL-21 plus RIL cells (E. coli)
T2 sequence (Q99828 1-191): T1 sequence (Q99828 1-191)

[4] = molecular target: T3, GST-CIB1 : F-scrambled peptide (Homo sapiens, UniProt Q99828); experiment: FP scrambled-peptide counter screen, 1536-well format; type: binding
T3 construct: made in house; host or cells: BL-21 plus RIL cells (E. coli)
T3 sequence (Q99828 1-191): T1 sequence (Q99828 1-191)

[5] = In vitro ADME: PAMPA permeability
[6] = molecular target: T4, GST-CIB1:F-αIIb interaction (Homo sapiens, UniProt Q99828); experiment: Gel-based (in-gel) binding assay
T4 construct: made in house; host or cells: BL-21 plus RIL cells (E. coli)
T4 sequence (Q99828 1-191): T1 sequence (Q99828 1-191)

[7] = molecular target: T5, GST-CIB1 : F-αIIb peptide (Homo sapiens, UniProt Q99828); experiment: FP assay in the presence of glutathione (GSH), thiol reactivity; type: binding; conditions: for GSH/CIB1 IC50 ratio: ratio of GSH (+) IC50 to GSH (-) IC50; for GSH Assay Result: thiol reactivity call: No change / Active
T5 construct: made in house; host or cells: BL-21 plus RIL cells (E. coli)
T5 sequence (Q99828 1-191): T1 sequence (Q99828 1-191)

[8] = molecular target: T3, GST-CIB1 : F-scrambled peptide; experiment: FP scrambled-peptide counter screen, 384-well format; type: binding; conditions: for IC50: read-out: 384-well COUNTERSCREEN IC50
[9] = 384-well FP assay, Table 1, read-out: FP assay IC50
[10] = confirmatory screen, qHTS curve class, negative sign = inhibitory curve
[11] = qHTS FP screen hits, Table S2, negative = inhibition
[12] = qHTS FP screen hits, Table S2, one class per curve where COUNT > 1, negative sign = inhibitory curve
[13] = qHTS FP screen hits, Table S2, read-out: IC50
[14] = 1 μM GST-CIB1, 400 nM F-αIIb, 60 μM, 1:2, 4-points
[15] = F-αIIb peptide, read-out: 384-well SCREEN IC50
[16] = FP assay in the presence of glutathione (GSH +), read-out: GSH (+) Assay IC50
[17] = FP assay without glutathione (GSH -), read-out: GSH (-) Assay IC50
[18] = confirmatory screen, read-out: CONFIRMATORY SCREEN IC50
[19] = scrambled-peptide counterscreen, qHTS curve class
[20] = scrambled-peptide counterscreen, read-out: COUNTERSCREEN IC50
[21] = F-scrambled peptide, *: Curve in opposite direction

Cc1ccc(C(=O)c2no[n+]([O-])c2C(=O)c2ccc(C)cc2)cc1.O=C(O)C(F)(F)F [NCGC00351163-01]
inhibition at 10 µM (washed human platelets): 96% | Thrombin Assay 10 µM (%) (washed human platelets): 96% | solubility ([1]; read-out: Solubility): 12 µg/mL | IC50 [2, 9]: 6.68 µM | Efficacy (%) (confirmatory screen) ([3]; confirmatory screen): -51% | Confirm? (confirmatory screen) ([3]; confirmatory screen, YES/NO): YES | Curve Class (confirmatory screen) [3, 10]: -1.4 | IC50 ([3]; confirmatory screen, read-out: IC50 [μM] (confirmatory screen)): 5.6 µM | Efficacy (%) [3, 11]: -47% | Curve Class [3, 12]: -1.2 | IC50 [3, 13]: 11.2 µM | Efficacy (%) (counterscreen) ([4]; counterscreen): -36% | Curve Class (counterscreen) ([4]; counterscreen, qHTS curve class, negative sign = inhibitory curve): -1.2 | IC50 ([4]; counterscreen, read-out: IC50 [μM] (counterscreen)): 4 µM

O=C(c1ccc(C(F)(F)F)cc1)c1no[n+]([O-])c1C(=O)c1ccc(C(F)(F)F)cc1 [NCGC00351164-01]
inhibition at 10 µM (washed human platelets): 98% | Thrombin Assay 10 µM (%) (washed human platelets): 98% | solubility ([1]; read-out: Solubility): > 64 µg/mL | IC50 [2, 9]: 7.26 µM | Papp [5]: 11 ×10⁻⁶ cm/s

O=C(c1ccccc1)c1no[n+]([O-])c1C(=O)c1ccccc1 [NCGC00351168-01]
solubility [1]: > 43 µg/mL | PAMPA [5]: < 1 10-6 cm/s

O=C(c1cccs1)c1no[n+]([O-])c1CO [NCGC00354607-01]
inhibition at 10 µM (washed human platelets): 14% | Thrombin Assay 10 µM (%) (washed human platelets): 14% | solubility ([1]; read-out: Solubility): 23 µg/mL (≈ 102 µM) | Papp [5]: 130 ×10⁻⁶ cm/s

COc1cccc(-n2c(SCc3cc(=O)oc4cc(O)c(O)cc34)nc3ccccc3c2=O)c1.O=C(O)C(F)(F)F [NCGC00371345-01]
Active in Gel Assay? [6, 14]: YES | 384-well SCREEN Efficacy (%) ([2]; F-αIIb peptide): 73% | 384-well SCREEN Confirm? ([2]; F-αIIb peptide, YES/NO): YES | IC50 [2, 15]: 11.2 µM | Confirm and Selective? ([2]; selective toward αIIb: negative curve class and/or IC50 ratio of >3-fold and/or >2-fold efficacy vs scrambled peptide): Inconclusive | IC50 [7, 16]: 15.9 µM | IC50 [7, 17]: 20 µM | GSH/CIB1 IC50 ratio [7]: 0.8 | GSH Assay Result [7]: No change | CONFIRMATORY SCREEN Efficacy (%) [3]: -90% | CONFIRMATORY SCREEN Curve Class [3, 10]: -1.1 | IC50 [3, 18]: 14.1 µM | Efficacy (%) ([3]; qHTS primary screen hits, Table S2, negative = inhibition): -34% | Curve Class ([3]; qHTS primary screen hits, Table S2, negative sign = inhibitory curve, several classes where COUNT > 1): -1.4 | IC50 ([3]; qHTS primary screen hits, Table S2, read-out: IC50): 4.5 µM | COUNTERSCREEN Efficacy (%) [4]: -35% | COUNTERSCREEN Curve Class [4, 19]: -2.4 | IC50 [4, 20]: 8.9 µM | 384-well COUNTERSCREEN Efficacy (%) ([8]; F-scrambled peptide): 38% | 384-well COUNTERSCREEN Confirm? [8, 21]: Inconclusive | IC50 ([8]; F-scrambled peptide): 7.1 µM

CC(C)=CCC[C@]1(C)C=Cc2c(O)c3c(c(CC=C(C)C)c2O1)O[C@]12C(=C[C@@H]4CC1C(C)(C)O[C@@]2(C/C=C(/C)C(=O)O)C4=O)C3=O [NCGC00485239-01]
Active in Gel Assay? [6, 14]: YES | Inhibited concentration in gel (µM) ([6]; 1 μM GST-CIB1, 400 nM F-αIIb, concentrations tested 60, 30, 15, 7.5): 60,30 µM | 384-well SCREEN Efficacy (%) ([2]; F-αIIb peptide): 60% | 384-well SCREEN Confirm? ([2]; F-αIIb peptide, YES/NO): YES | IC50 [2, 15]: 3.6 µM | IC50 [7, 16]: 2.4 µM | IC50 [7, 17]: 2 µM | GSH/CIB1 IC50 ratio [7]: 1.2 | GSH Assay Result [7]: No change | CONFIRMATORY SCREEN Confirm? ([3]; confirmatory screen, YES/NO call): YES | CONFIRMATORY SCREEN Curve Class [3, 10]: -1.2 | CONFIRMATORY SCREEN Efficacy (%) ([3]; confirmatory screen, negative = inhibition): -54% | IC50 [3, 18]: 8.9 µM | Efficacy (%) [3, 11]: -34% | Curve Class [3, 12]: -1.2 | IC50 [3, 13]: 11.2 µM | COUNTERSCREEN Efficacy (%) ([4]; scrambled-peptide counterscreen): 32% | COUNTERSCREEN Confirm? ([4]; scrambled-peptide counterscreen, YES/NO call): YES | COUNTERSCREEN Curve Class [4, 19]: 1.4 | IC50 [4, 20]: 12.6 µM | 384-well COUNTERSCREEN Efficacy (%) ([8]; F-scrambled peptide): 40% | 384-well COUNTERSCREEN Confirm? [8, 21]: YES | IC50 ([8]; F-scrambled peptide): > 120 µM

thimerosal [NCGC00178879-04, reference compound]
Active in Gel Assay? [6]: YES | 384-well SCREEN Confirm? [2]: YES | 384-well SCREEN Efficacy (%) [2]: 77% | IC50 ([2]; read-out: 384-well SCREEN IC50): 2.8 µM | IC50 ([7]; read-out: GSH (+) Assay IC50): 35.6 µM | IC50 ([7]; read-out: GSH (-) Assay IC50): 0.316 µM | CONFIRMATORY SCREEN Confirm? [3]: YES | CONFIRMATORY SCREEN Curve Class [3]: -1.2 | CONFIRMATORY SCREEN Efficacy (%) [3]: -53% | Curve Class [3]: -1.2 | Efficacy (%) [3]: -74% | IC50 ([3]; read-out: CONFIRMATORY SCREEN IC50): 17.8 µM | IC50 ([3]; read-out: IC50): 22.4 µM | COUNTERSCREEN Confirm? [4]: YES | COUNTERSCREEN Curve Class [4]: 3 | COUNTERSCREEN Efficacy (%) [4]: 150% | 384-well COUNTERSCREEN Confirm? [8]: YES | 384-well COUNTERSCREEN Efficacy (%) [8]: 45% | IC50 [8]: 7.1 µM
